Measurements published in patent US9198894B2, “Uses of 15-benzylidene-14-deoxy-11,12-didehydroandrographolide derivatives in the preparation of antineoplastic drugs” (Zhengzhou University, priority 2010, dated 2015).
Where “and” joins values, the source holds several entries; their conditions need not be identical. Equal entries are not always repeated. Marks after values point to notes of the source that are not given here.

What was measured:
[1] = tested on: Hela human cervical carcinoma; assay: Colony formation assay, Hela; format: cell-based; details: Hela; read-out: Inhibition against tumor cell colony formation IC50
Method: (§1) 1) Cell lines: Cell lines of SGC-7901 human gastric cancer, A549 human lung adenocarcinoma and Hela human cervical carcinoma were purchased from the Type Culture Collection of the Chinese Academy of Sciences, Shanghai, China.
(§2) 3) Method: Colony formation assay was used. The cells were trypsinized to generate a single-cell suspension and seeded in a 6-well plate at a density of 100 cells/well, then drug-containing medium was added to the well to make the final concentration of compound to 0, 1.25, 2.50, 5.00, 7.50, 10.00 μmol/L, respectively. The experiments were performed in duplicate, and the cells were cultured at 37 in a humidified atmosphere with 5% CO2. Terminate cell culture when the clones can be seen in the culture plate, then remove the culture medium, and wash twice with PBS, fix the cells with methanol (5 ml/well) for 15 min and stain the cells with hematoxylin-eosin stain. The number of clones which comprised more than 50 cells was counted under a TS100-F-PH microscope (Nikon Company, Japan). Calculate relative colony formation ratio (%) and the IC50 values. Relative colony formation ratio (%)=(colony number of drug-administration well/colony number of control well)×100%.

[2] = tested on: 5637 human urinary bladder cancer cells; assay: Wound healing (two-dimensional migration) assay, 5637; format: cell-based; details: 5637, 10.00 μmol/l, 24 h (FIG. 1C)
Method: (§3) 1) Cell lines: Cell lines of 5637 human bladder carcinoma, Eca-109 human esophageal carcinoma, HT29 human colon cancer, SGC-7901 human gastric cancer, A549 human lung adenocarcinoma and PC-3 human prostate carcinoma were purchased from the Type Culture Collection of the Chinese Academy of Sciences, Shanghai, China.
(§4) 3) Methods: The cells were trypsinized to generate a single-cell suspension and seeded in 96-well plates (200 μl/well), and incubated with medium containing 10% fetal bovine serum at 37 in a humidified atmosphere with 5% CO2. Following a 24 h incubation, the cells were starved for an additional 12 h in low-serum media (1% FBS). The cultures of Eca-109, HT29, 5637, SGC-7901, A549 and PC-3 were then scratched away with a 200-μl plastic pipette tip and rinsed twice with PBS to remove wound-derived loose and dislodged cells. The cells were cultured in replaced medium without or with compounds at final concentrations of 0, 2.50, 5.00 and 10.00 μmol/L, respectively. At least seven randomly selected views along the scraped line in each well were photographed immediately and 24 h and 36 h after incubation using a digital camera at 50× magnification. The average scraped area in each well under each treatment condition was measured, and the percentage of inhibition against cell migration was calculated. % of inhibition=1−(A0−At)/(A′0−A′t)×100%, where, A0 and At are the areas of wound with compound treatment measured immediately and 24 or 36 h post-injury, respectively; A′0 and A′t are the areas of wound without compound treatment measured immediately and 24 or 36 h post-injury, respectively.

[3] = tested on: PC-3 human prostate carcinoma cells; assay: Wound healing (two-dimensional migration) assay, PC-3; format: cell-based; details: PC-3, 10.00 μmol/l, 36 h (FIG. 1F)
Method: as §3
as §4, with “The cells were cultured in replaced medium without or with compounds at final concentrations of 0, 2.50, 5.00 and 10.00 μmol/L, respectively. At least seven randomly selected views along the scraped line in each well were photographed immediately and 24 h and 36 h after incubation using a digital camera at 50× magnification.” left out

[4] = tested on: A549 human lung adenocarcinoma; assay: Colony formation assay, A549; format: cell-based
Method: as §1, §2

[5] = tested on: SGC-7901 human gastric cancer; assay: Colony formation assay, SGC-7901; format: cell-based
Method: as §1, §2

[6] = tested on: B16-F10 mouse melanoma cells; format: in vivo; details: B16-F10, C57BL/6 mice, 30.00 mg/kg ig 24 d
Method: 1) Animals: A total of 20 C57BL/6 male mice of clean grade [Number of Animal License: SCXK (Xiang) 2009-0004], weighing 18-22 g, were purchased from Hunan Slca Jingda Experimental Animal Center Company, Ltd., China.
2) Cells: B16-F10 mouse melanoma cells were purchased from Nanjing KeyGen Biotech. Co. Ltd., China.
(§5) 4) Method: B16-F10 cells in logarithmic growth phase were trypsinized, then resuspended in RPMI1640 medium containing 10% fetal bovine serum and centrifuged at 1000 rpm for 5 min. The supernatant was removed and sterile PBS was added to prepare single-cell suspension (10^7/mL). The murine melanoma lung metastasis model was established in mice via caudal vein injection of B16-F10 cells (0.2 ml/mouse). Mice were randomly divided into 4 groups (n=5) according to body weight, and 24 h later they were administrated intragastrically (ig; 0.2 ml/10 g) once a day continuously for 24 d with vehicle (tumor control group), Cyc (30 mg/kg), compound 3 at 0.85 mmol/kg and 1.10 mmol/kg. Mice were weighed and blood was collected by removing the eyeball at 24 h after the last administration. Sacrificed the mice, removed the lung and counted the number of melanoma nodules in lungs of mice under an anatomical lens. Serum obtained after centrifugation at 3000 rpm for 20 min (3K30 refrigerated centrifuge, Sigma, USA) was conserved at −20° C. Levels of TNF-α and IL-1β in serum were measured by ELISA method, which were performed in accordance with the instructions of the kits.
Data were expressed as mean±SD and statistical analysis was performed by SPSS Statistics 17.0 using a one-way analysis of variance (ANOVA) followed by unpaired t-test. A value of P<0.05 was considered statistically significant. The inhibition ratio (IR %) of lung metastasis was calculated as follows: IR %=(Nc−Nt)/Nc×100%, where Nc is the average number of nodules in lung tissues of vehicle, and Nt is that of mice treated with drugs.

Murine hepatoma H22 = assay: Anti-tumor and anti-angiogenesis effects on H22 tumor-bearing mice; format: in vivo, mouse; details: H22 mice, 20.00 mg/kg ig once a day 7 d
From the text: 1) Animals: Kunming mice of clean grade, half male and half female, body weight 20±2 g, were purchased from the experimental animal center of Henan Province, China. Qualified Certificate number: SCXK (Yu) 2005-0001.
2) Cells: Murine hepatoma H22 cells were presently obtained from Henan Academy of Medical and Pharmaceutical Sciences (Zhengzhou, China).
Cyclophosphamide (Cyc) was produced by Tianjin Jingshi Pharmaceutical Co., Ltd., China (approval number of medicine: H12021006). Gelatin and carmine red were supplied by Sigma Chemical (St. Louis, Mo., U.S.A). All other chemicals and reagents were of the highest commercial grade available. All drugs were prepared with normal saline emulsified with Tween-80 (0.1% v/v) and dispersed in carboxymethylcellulose (0.5% v/v). 10% (W/V) carmine solution was prepared with salt solution containing 5% (W/V) gelatin which should be used immediately after preparation. The rest of medicines and reagents and the methods for preparation were the same with that of EXAMPLE 1.
4) Method: The H22 cells after in vivo passage for 7 d were diluted with physiological saline to adjust to a concentration of 1×10^7/mL, injected to the armpit of right forelimb of mice subcutaneously (0.2 ml/mouse), then mice were divided into 10 groups (n=12; 6 male and 6 female per group) randomly. 24 h later each group of mice was administrated intragastrically (ig; 0.2 ml/10 g) once a day continuously for 7 d with vehicle (tumor control group and control group), Cyc (standard control), or compounds at the tested doses. After the last drug administration and a following fasting of 8 h, each mouse was anesthetized with 1% pentobarbital in normal saline solution (80 mg/kg; ip). Mice of control group were injected with 5% gelatin in normal saline solution (40) via the tail vein (1 ml/mouse); whereas mice of other groups were injected replaced by 10% carmine red and 5% gelatin in normal saline solution (40). Mice were killed, then freezed in a refrigerator at −20 for 2 h to solidify. Tumors were segregated, weighed and homogenized with 3 M NaOH solution (10 ml/g tumor). The homogenate supernatant was prepared by being centrifuged for 20 min at 14000 rpm, and the absorbance at 490 nm was assayed using a PowerWaveX Microplate Scanning Spectrophotometer (Bio-tek Instruments, Inc). The carmine red content was calculated based on the standard curve. The vascular index (VI) expressed as milligram of carmine red per gram of tumor tissue. The inhibition ratio (IR) of tumor growth was calculated using the formula: IR (%)=[(Wc−Wt)/Wc]×100%, where Wc is the average tumor weight of the control group, and Wt is that of the drug treatment group. Data were expressed as mean±SD and statistical analysis was performed by SPSS Statistics 17.0 using a one-way analysis of variance (ANOVA) followed by unpaired t-test. A value of P<0.05 was considered statistically significant.

IL-1β = format: in vivo, mouse; details: mouse, in vivo, 30 mg/kg
[7] = format: in vivo, mouse; details: C57BL/6 mice, before vs 24 d after administration, Cyc 30 mg/kg ig
Method: as §5

S180 murine sarcoma = assay: Growth, invasion and metastasis of S180 sarcoma in tumor-bearing mice; format: in vivo, mouse
Method: 1) Animals: Be the same with that of EXAMPLE 4.
2) Cells: The S180 murine sarcoma cells were obtained from Henan Academy of Medical and Pharmaceutical Sciences (Zhengzhou, China).
4) Method: Mice were randomly divided into 10 groups (n=12). The S180 cells after in vivo passage for 7 d were diluted with physiological saline to adjust to a concentration of 1×10^7/mL. The inoculation of tumor cells was conducted in two batches, those of tumor control group I and groups treated with compounds 1 or 3 were in batch 1, those of tumor control group II, Cyc group and the compound 2 groups were in batch 2. The mice were injected with S180 cells (0.2 ml/mouse) into the armpit of right forelimb subcutaneously, and 24 h later each group of mice was administrated intragastrically (ig; 0.2 ml/10 g) once a day continuously for 9 d with vehicle (tumor control group), Cyc (standard control), or compounds at the tested doses. On day 10, kill the mice, observe and record the degree of invasion and metastasis of tumor tissues, then the tumor tissues were segregated and weighed. The inhibition ratio (IR) of tumor growth was calculated by the following formula: IR (%)=[(Wc−Wt)/Wc]×100%, where Wc is the average tumor weight of the control group, and Wt is that of the treatment group. Data were expressed as mean±SD and statistical analysis was performed by SPSS Statistics 17.0 using a one-way analysis of variance (ANOVA) followed by unpaired t-test. A value of P<0.05 was considered statistically significant.

TNF-α = format: in vivo, mouse; details: mouse, in vivo, 30 mg/kg
[8] = read-out: Inhibition against tumor cell colony formation IC50

With `C=C1CCC2C(C)(CO)C(O)CCC2(C)C1C=CC1=CC(=Cc2ccccc2)OC1=O` (centres unmarked) [Compound 4] the IC50 [1] was 4.84 µM, the “Inhibitory effect on two-dimensional migration” value [2] was “much stronger than that of other tumor cells” and the “Inhibitory effect on two-dimensional migration” value [3] was “much stronger than that of other tumor cells”. For the same compound, the “Inhibition of colony formation compared with andrographolide” value [4] was “remarkably stronger than that of andrographolide”, the IC50 [4, 8] was 4.51 µM and the “Inhibition of colony formation compared with andrographolide” value [5] was “remarkably stronger than that of andrographolide”. The IC50 [5, 8] was 5.07 µM.

In the case of `O=P1(N(CCCl)CCCl)NCCCO1` (centres unmarked) [Cyc, Cyclophosphamide, reference compound], the “IR (%) of lung metastasis” value ([6]; 30 mg/kg) is reported as 47.92%, the Lung index ([6]; mean ± s, n = 5) is reported as 6.66 ± 0.37 mg/g and the “Nodule number (melanoma nodules in lungs)” value ([6]; mean ± s, n = 5) is reported as 43.76 ± 11.70. The “IR (%) of tumor growth” value (Murine hepatoma H22) was 29.34* %, the Carmine contents (Murine hepatoma H22; mean ± s) was 4.24 ± 2.29 and the “VI (vascular index, mg carmine red per g tumor tissue)” value (Murine hepatoma H22; mean ± s) was 4.87 ± 1.13 mg/g. For the same compound, the IL-1β in serum (IL-1β) was 41.58 ± 4.39 pg/mL, the “Average increase in body weight” value [7] was 0.7 g and the “IR (%) of S180 sarcoma growth” value (S180 murine sarcoma; 30.00 mg/kg ig once a day 9 d) was 53.61% and 53.61 ± 12.43 %. The “Average invasion and metastasis grade” value (S180 murine sarcoma; S180, grades 0-4, 30.00 mg/kg) was 3.67, the “Mouse Number Grade 0” value (S180 murine sarcoma; S180 invasion, Grade 0: no invasion, 30.00 mg/kg) was 0 and the “Mouse Number Grade 1” value (S180 murine sarcoma; S180 invasion, Grade 1: invasion to right forelimb, 30.00 mg/kg) was 0. For the same compound, the “Mouse Number Grade 2” value (S180 murine sarcoma; S180 invasion, Grade 2: right forelimb and the left side of body, 30.00 mg/kg) was 0, the “Mouse Number Grade 3” value (S180 murine sarcoma; S180 invasion, Grade 3: also the ribs and muscles in chest, 30.00 mg/kg) was 4 and the “Mouse Number Grade 4” value (S180 murine sarcoma; S180 invasion, Grade 4: invasion into chest or abdominal cavity, 30.00 mg/kg) was 8. The TNF-α in serum (TNF-α) was 8.45 ± 9.54.
